In ChEMBL document CHEMBL1201862, “PubChem BioAssay data set” (2004):
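Where inhibition never reached the appropriate level, the endpoint shown equals the highest concentration tested. Otherwise, values were interpolated linearly from a five-concentration, 48-hour dose response in 96-well plates. GI50 marks 50% less growth.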 Activity calls are given as the source filed them. Cut-off read from the data, not from the text of the source: active = GI50 up to about 1.1 µM and inactive = higher.

Legend:
Assay in all cases: NCI anticancer screen, dose series, 48 h
[1] = tested on: NCI-H460
[2] = tested on: M14
[3] = tested on: OVCAR-5
[4] = tested on: OVCAR-4
[5] = tested on: LOX IMVI
[6] = tested on: TK-10
[7] = tested on: NCI-H23
[8] = tested on: MOLT-4
[9] = tested on: CCRF-CEM
[10] = tested on: MDA-MB-435
[11] = tested on: ACHN
[12] = tested on: SF-268
[13] = tested on: HL-60
[14] = tested on: BT-549
[15] = tested on: HCT-116
[16] = tested on: A498
[17] = tested on: NCI-H522
[18] = tested on: SNB-75
[19] = tested on: RXF 393
[20] = tested on: SF-539

SMILES	GI50 [1]	GI50 [2]	GI50 [3]	GI50 [4]	GI50 [5]	GI50 [6]	GI50 [7]	GI50 [8]	GI50 [9]	GI50 [10]	GI50 [11]	GI50 [12]	GI50 [13]	GI50 [14]	GI50 [15]	GI50 [16]	GI50 [17]	GI50 [18]	GI50 [19]	GI50 [20]
Cc1cn(Cc2cccc(C3=NCCCN3)c2)c(=O)n(Cc2cccc(C3=NCCCN3)c2)c1=O	> 100 µM (inactive)	> 100 µM (inactive)	> 100 µM (inactive)	> 100 µM (inactive)	> 100 µM (inactive)	> 100 µM (inactive)	> 100 µM (inactive)	> 100 µM (inactive)	> 100 µM (inactive)	> 100 µM (inactive)	> 100 µM (inactive)	> 100 µM (inactive)	> 100 µM (inactive)	> 100 µM (inactive)	> 100 µM (inactive)	> 100 µM (inactive)	> 100 µM (inactive)	83.6 µM (inactive)		
O=[N+]([O-])c1cc(-[n+]2cc([O-])on2)ccc1F	18.5 µM (inactive)	16.1 µM (inactive)	16.5 µM (inactive)	11.9 µM (inactive)	14.9 µM (inactive)	18.4 µM (inactive)	18.2 µM (inactive)		11.8 µM (inactive)	16.2 µM (inactive)	17 µM (inactive)	14.8 µM (inactive)	22.6 µM (inactive)	16.1 µM (inactive)	15.3 µM (inactive)		9.02 µM (inactive)	13.7 µM (inactive)	14.1 µM (inactive)	
O=C(OCC1OC(c2nn[nH]n2)C(OC(=O)c2ccccc2)C1OC(=O)c1ccccc1)c1ccccc1 (configuration not stated)	71 µM (inactive)		> 100 µM (inactive)	> 100 µM (inactive)	> 100 µM (inactive)	> 100 µM (inactive)	> 100 µM (inactive)	> 100 µM (inactive)	96.6 µM (inactive)	> 100 µM (inactive)	> 100 µM (inactive)	76.7 µM (inactive)	> 100 µM (inactive)	> 100 µM (inactive)	> 100 µM (inactive)	> 100 µM (inactive)		57 µM (inactive)	41.9 µM (inactive)	> 100 µM (inactive)
O=C1C=CC(=NNc2ccccc2)C=CC1=O	11.3 µM (inactive)	12.9 µM (inactive)	20.8 µM (inactive)	7.46 µM (inactive)	5.09 µM (inactive)	22.3 µM (inactive)	14 µM (inactive)	3.1 µM (inactive)		12.9 µM (inactive)	8.05 µM (inactive)	16.3 µM (inactive)	14 µM (inactive)	19.4 µM (inactive)	13.3 µM (inactive)		13.1 µM (inactive)	16.3 µM (inactive)	99.8 µM (inactive)	16 µM (inactive)
O=C1/C(=C/c2ccccc2)CCc2ccccc21	26.1 µM (inactive)	20.1 µM (inactive)	16.8 µM (inactive)	14.8 µM (inactive)	16.8 µM (inactive)	15.2 µM (inactive)	19.6 µM (inactive)	12.2 µM (inactive)	4.02 µM (inactive)	14.8 µM (inactive)	17.2 µM (inactive)	19.7 µM (inactive)	16.9 µM (inactive)	16.2 µM (inactive)	15.1 µM (inactive)	16.9 µM (inactive)		17.3 µM (inactive)	15.2 µM (inactive)	16 µM (inactive)
CCOC(=O)c1c(N2CCOCC2)[nH]c(=O)c(C(c2ccc(N(C)C)cc2)c2c(O)c(C(=O)OCC)c(N3CCOCC3)[nH]c2=O)c1O	> 100 µM (inactive)	> 100 µM (inactive)	> 100 µM (inactive)	> 100 µM (inactive)	59 µM (inactive)	> 100 µM (inactive)	> 100 µM (inactive)	> 100 µM (inactive)	54.2 µM (inactive)	> 100 µM (inactive)	> 100 µM (inactive)	> 100 µM (inactive)		> 100 µM (inactive)	> 100 µM (inactive)	> 100 µM (inactive)	> 100 µM (inactive)	> 100 µM (inactive)	> 100 µM (inactive)	> 100 µM (inactive)
COc1cc2c(cc1O)NC(=S)[C@@H]1CCCN1C2=O	> 100 µM (inactive)	> 100 µM (inactive)	> 100 µM (inactive)	> 100 µM (inactive)	> 100 µM (inactive)	> 100 µM (inactive)	> 100 µM (inactive)	> 100 µM (inactive)	76.6 µM (inactive)	> 100 µM (inactive)	> 100 µM (inactive)	> 100 µM (inactive)		> 100 µM (inactive)	> 100 µM (inactive)	> 100 µM (inactive)	> 100 µM (inactive)	> 100 µM (inactive)	> 100 µM (inactive)	> 100 µM (inactive)
CC12CCC(/C(=N/c3cc(C(F)(F)F)cc(C(F)(F)F)c3)C1=O)C2(C)C (configuration not stated)	33.4 µM (inactive)	30.6 µM (inactive)	56.4 µM (inactive)	44 µM (inactive)	15.2 µM (inactive)	37.2 µM (inactive)	25.7 µM (inactive)	17.4 µM (inactive)	0.453 µM (active)	38.3 µM (inactive)	> 100 µM (inactive)	33.3 µM (inactive)	1.04 µM (active)	32.5 µM (inactive)	27.7 µM (inactive)	22.3 µM (inactive)			12.3 µM (inactive)	22.9 µM (inactive)
CC(C)C1=C(Cc2ccccc2)C(=O)O/C1=C\c1ccc(O)c(Cl)c1	17.4 µM (inactive)	17.5 µM (inactive)	18.4 µM (inactive)	14.7 µM (inactive)	18.4 µM (inactive)	17.7 µM (inactive)	13.1 µM (inactive)	10.9 µM (inactive)	15.5 µM (inactive)	17 µM (inactive)	14.9 µM (inactive)	16.6 µM (inactive)	15.7 µM (inactive)	22.2 µM (inactive)	15.5 µM (inactive)	17.6 µM (inactive)		16.9 µM (inactive)	17.5 µM (inactive)	18.6 µM (inactive)
O=C1C=CC(=O)c2c1ccc1c3ccccc3n(Cc3ccccc3)c21	> 43.2 µM (inactive)	18 µM (inactive)	20.9 µM (inactive)	13.3 µM (inactive)	20 µM (inactive)	18.6 µM (inactive)	19.5 µM (inactive)	7.55 µM (inactive)	1.8 µM (inactive)	26.1 µM (inactive)	18.2 µM (inactive)	32.1 µM (inactive)		20.4 µM (inactive)	19.1 µM (inactive)	19.8 µM (inactive)	14.3 µM (inactive)	> 82.8 µM (inactive)	16.8 µM (inactive)	38.4 µM (inactive)
CC[C@H](C)[C@H](NC(=O)[C@H](Cc1ccc(O)cc1)NCC(F)(F)F)C(=O)OC(C)(C)C	6.22 µM (inactive)	7.03 µM (inactive)	8.63 µM (inactive)	5.64 µM (inactive)	8.67 µM (inactive)	8.09 µM (inactive)	8.59 µM (inactive)	6.35 µM (inactive)		7 µM (inactive)	7.33 µM (inactive)	9.71 µM (inactive)		10.8 µM (inactive)	7.18 µM (inactive)	7.31 µM (inactive)	7.31 µM (inactive)	7.89 µM (inactive)	7.16 µM (inactive)	9.71 µM (inactive)
CCCC(=O)OCOC(=O)N(C)/N=N/c1ccc(C(=O)OCC)cc1	8.97 µM (inactive)	24.3 µM (inactive)	38 µM (inactive)	39.4 µM (inactive)	10.7 µM (inactive)	27.9 µM (inactive)	24.3 µM (inactive)	39.4 µM (inactive)	37.6 µM (inactive)	44.1 µM (inactive)	17.5 µM (inactive)	28.3 µM (inactive)		26.8 µM (inactive)	21.1 µM (inactive)	29.2 µM (inactive)	17.3 µM (inactive)	26.5 µM (inactive)	16.3 µM (inactive)	
COc1c(-c2nc3ccc(N4CCN(C)CC4)nc3[nH]2)cc(OC)c2[nH]c(CO)nc12	> 100 µM (inactive)	> 100 µM (inactive)	> 100 µM (inactive)	70 µM (inactive)	85.5 µM (inactive)	> 100 µM (inactive)	> 100 µM (inactive)	52.2 µM (inactive)		56.8 µM (inactive)	> 100 µM (inactive)	92.3 µM (inactive)		> 100 µM (inactive)	54.7 µM (inactive)	> 100 µM (inactive)	52.4 µM (inactive)	95.5 µM (inactive)	> 100 µM (inactive)	22.5 µM (inactive)
Cc1cc2ccccc2n2c1nc1ccc(O)cc12	5.36 µM (inactive)	> 10 µM (inactive)	> 10 µM (inactive)	> 10 µM (inactive)		> 10 µM (inactive)	> 10 µM (inactive)	5.69 µM (inactive)	> 10 µM (inactive)	> 10 µM (inactive)	9.91 µM (inactive)	> 10 µM (inactive)	> 10 µM (inactive)	> 10 µM (inactive)	> 10 µM (inactive)		9.04 µM (inactive)	5 µM (inactive)	> 10 µM (inactive)	> 10 µM (inactive)
CCCN(CCCc1ccccc1)CCc1ccc2[nH]c(=S)[nH]c2c1	13.2 µM (inactive)	16.7 µM (inactive)	48.5 µM (inactive)	76.4 µM (inactive)	31.3 µM (inactive)	71.1 µM (inactive)	40.6 µM (inactive)	11.3 µM (inactive)		18.7 µM (inactive)	29.2 µM (inactive)	52.4 µM (inactive)		68.9 µM (inactive)	13.1 µM (inactive)	> 100 µM (inactive)		21.1 µM (inactive)	11.2 µM (inactive)	
